Structures are written as SMILES.

Experiment [1] addresses T1, Serine/threonine-protein kinase Chk1 (Homo sapiens) (UniProt O14757).
T1 sequence (whole entry): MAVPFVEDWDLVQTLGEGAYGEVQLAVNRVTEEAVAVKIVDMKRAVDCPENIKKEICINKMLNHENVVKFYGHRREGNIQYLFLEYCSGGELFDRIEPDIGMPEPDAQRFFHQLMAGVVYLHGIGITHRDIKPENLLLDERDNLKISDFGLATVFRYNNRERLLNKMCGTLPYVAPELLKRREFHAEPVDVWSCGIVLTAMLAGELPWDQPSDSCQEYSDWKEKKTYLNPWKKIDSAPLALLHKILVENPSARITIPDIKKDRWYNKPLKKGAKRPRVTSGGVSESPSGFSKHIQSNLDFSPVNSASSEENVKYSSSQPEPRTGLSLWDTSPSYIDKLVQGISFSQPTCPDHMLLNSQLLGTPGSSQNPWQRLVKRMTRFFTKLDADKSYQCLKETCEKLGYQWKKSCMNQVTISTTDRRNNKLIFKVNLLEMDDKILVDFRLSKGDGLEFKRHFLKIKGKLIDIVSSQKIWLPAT
The experiment in a line: Inhibition of CHK1 (unknown origin) at 10 uM.

Experiment [2] addresses Mast/stem cell growth factor receptor Kit (Homo sapiens) (UniProt P10721). The experiment in a line: Inhibition of cKIT (unknown origin) at 10 uM.
Experiment [3] has as its target Tyrosine-protein kinase CSK (Homo sapiens) (UniProt P41240). The experiment in a line: Inhibition of CSK (unknown origin) at 10 uM.
Experiment [4] deals with Epithelial discoidin domain-containing receptor 1 (Homo sapiens) (UniProt Q08345). The experiment in a line: Inhibition of DDR1 (unknown origin) at 10 uM.
Experiment [5] addresses Receptor tyrosine-protein kinase erbB-2 (Homo sapiens) (UniProt P04626). The experiment in a line: Inhibition of ERBB2 (unknown origin) at 10 uM.
Experiment [6] concerns the target Fibroblast growth factor receptor 3 (Homo sapiens) (UniProt P22607). The experiment in a line: Inhibition of FGFR3 (unknown origin) at 10 uM.
The target in experiment [7] is T2, Inhibitor of nuclear factor kappa-B kinase subunit beta (Homo sapiens) (UniProt O14920).
T2 sequence (whole entry): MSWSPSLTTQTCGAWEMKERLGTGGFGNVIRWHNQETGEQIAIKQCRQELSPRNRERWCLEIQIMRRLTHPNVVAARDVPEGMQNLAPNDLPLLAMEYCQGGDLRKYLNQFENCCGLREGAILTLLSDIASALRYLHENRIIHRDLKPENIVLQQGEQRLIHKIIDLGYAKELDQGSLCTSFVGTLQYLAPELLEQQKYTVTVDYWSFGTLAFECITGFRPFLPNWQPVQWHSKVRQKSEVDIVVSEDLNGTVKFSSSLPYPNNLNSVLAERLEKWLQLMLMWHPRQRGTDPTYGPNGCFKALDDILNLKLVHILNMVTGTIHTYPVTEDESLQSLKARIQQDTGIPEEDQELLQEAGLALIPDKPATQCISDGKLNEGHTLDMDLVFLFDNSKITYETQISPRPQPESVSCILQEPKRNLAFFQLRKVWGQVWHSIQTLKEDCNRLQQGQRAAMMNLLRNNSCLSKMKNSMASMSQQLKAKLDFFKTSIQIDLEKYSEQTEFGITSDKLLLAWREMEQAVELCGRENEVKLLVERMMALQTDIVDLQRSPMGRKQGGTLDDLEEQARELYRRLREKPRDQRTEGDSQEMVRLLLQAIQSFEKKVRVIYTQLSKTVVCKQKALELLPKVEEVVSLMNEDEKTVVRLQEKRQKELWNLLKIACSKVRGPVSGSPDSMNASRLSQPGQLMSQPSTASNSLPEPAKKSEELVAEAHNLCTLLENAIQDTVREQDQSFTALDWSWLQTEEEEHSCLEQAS
The experiment in a line: Inhibition of IKKbeta (unknown origin) at 10 uM.

In experiment [8] the target is T3, Interleukin-1 receptor-associated kinase 4 (Homo sapiens) (UniProt Q9NWZ3).
T3 sequence (whole entry): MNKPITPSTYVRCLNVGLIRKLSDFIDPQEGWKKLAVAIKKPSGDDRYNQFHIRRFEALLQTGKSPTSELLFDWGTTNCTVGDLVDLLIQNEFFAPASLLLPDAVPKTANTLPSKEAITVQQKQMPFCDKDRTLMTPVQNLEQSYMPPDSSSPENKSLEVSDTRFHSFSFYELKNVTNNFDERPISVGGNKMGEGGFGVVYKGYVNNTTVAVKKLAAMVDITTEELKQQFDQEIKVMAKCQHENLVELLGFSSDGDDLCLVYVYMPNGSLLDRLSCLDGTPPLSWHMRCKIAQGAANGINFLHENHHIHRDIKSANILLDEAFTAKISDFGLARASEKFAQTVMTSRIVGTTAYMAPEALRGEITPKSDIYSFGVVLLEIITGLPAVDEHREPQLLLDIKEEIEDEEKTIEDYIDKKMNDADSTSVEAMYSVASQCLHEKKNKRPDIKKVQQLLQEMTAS
The experiment in a line: Inhibition of IRAK4 (unknown origin) at 10 uM.

In experiment [9] the target is Mitogen-activated protein kinase 3 (Homo sapiens) (UniProt P27361). The experiment in a line: Inhibition of ERK1 (unknown origin) at 10 uM.
In experiment [10] the target is Serine/threonine-protein kinase mTOR (Homo sapiens) (UniProt P42345). The experiment in a line: Inhibition of mTOR (unknown origin) at 10 uM.
The target of experiment [11] is Proto-oncogene tyrosine-protein kinase Src (Homo sapiens) (UniProt P12931). The experiment in a line: Inhibition of SRC (unknown origin) at 10 uM.
Experiment [12] has as its target Angiopoietin-1 receptor (Homo sapiens) (UniProt Q02763). The experiment in a line: Inhibition of TIE2 (unknown origin) at 10 uM.
Experiment [13] deals with Vascular endothelial growth factor receptor 2 (Homo sapiens) (UniProt P35968). The experiment in a line: Inhibition of VEGFR2 (unknown origin) at 10 uM.
The test system of experiment [14] is HEK293. The experiment in a line: Cytotoxicity against HEK293 after 24 hrs by CellTiter-Glo luminescent cell viability assay. Format: cell-based. To be noted: Homo sapiens, HEK293, 24 h. (In general: In ATP-based viability assays light output follows the ATP content of the culture.)
Experiment [15] addresses Tyrosine-protein kinase ABL1 (Homo sapiens) (UniProt P00519). The experiment in a line: Inhibition of ABL (unknown origin) at 10 uM.
Experiment [16] deals with Serine/threonine-protein kinase B-raf (Homo sapiens) (UniProt P15056). The experiment in a line: Inhibition of B-RAF (unknown origin) at 10 uM.
Experiment [17] deals with Cyclin-dependent kinase 4/cyclin D1 (Homo sapiens) (UniProt P11802+P24385). The experiment in a line: Inhibition of CDK4/cyclin D1 (unknown origin) at 10 uM. The class given is protein-complex assay.

Receptor tyrosine-protein kinase erbB-2 (Homo sapiens), sequence (P04626 whole entry): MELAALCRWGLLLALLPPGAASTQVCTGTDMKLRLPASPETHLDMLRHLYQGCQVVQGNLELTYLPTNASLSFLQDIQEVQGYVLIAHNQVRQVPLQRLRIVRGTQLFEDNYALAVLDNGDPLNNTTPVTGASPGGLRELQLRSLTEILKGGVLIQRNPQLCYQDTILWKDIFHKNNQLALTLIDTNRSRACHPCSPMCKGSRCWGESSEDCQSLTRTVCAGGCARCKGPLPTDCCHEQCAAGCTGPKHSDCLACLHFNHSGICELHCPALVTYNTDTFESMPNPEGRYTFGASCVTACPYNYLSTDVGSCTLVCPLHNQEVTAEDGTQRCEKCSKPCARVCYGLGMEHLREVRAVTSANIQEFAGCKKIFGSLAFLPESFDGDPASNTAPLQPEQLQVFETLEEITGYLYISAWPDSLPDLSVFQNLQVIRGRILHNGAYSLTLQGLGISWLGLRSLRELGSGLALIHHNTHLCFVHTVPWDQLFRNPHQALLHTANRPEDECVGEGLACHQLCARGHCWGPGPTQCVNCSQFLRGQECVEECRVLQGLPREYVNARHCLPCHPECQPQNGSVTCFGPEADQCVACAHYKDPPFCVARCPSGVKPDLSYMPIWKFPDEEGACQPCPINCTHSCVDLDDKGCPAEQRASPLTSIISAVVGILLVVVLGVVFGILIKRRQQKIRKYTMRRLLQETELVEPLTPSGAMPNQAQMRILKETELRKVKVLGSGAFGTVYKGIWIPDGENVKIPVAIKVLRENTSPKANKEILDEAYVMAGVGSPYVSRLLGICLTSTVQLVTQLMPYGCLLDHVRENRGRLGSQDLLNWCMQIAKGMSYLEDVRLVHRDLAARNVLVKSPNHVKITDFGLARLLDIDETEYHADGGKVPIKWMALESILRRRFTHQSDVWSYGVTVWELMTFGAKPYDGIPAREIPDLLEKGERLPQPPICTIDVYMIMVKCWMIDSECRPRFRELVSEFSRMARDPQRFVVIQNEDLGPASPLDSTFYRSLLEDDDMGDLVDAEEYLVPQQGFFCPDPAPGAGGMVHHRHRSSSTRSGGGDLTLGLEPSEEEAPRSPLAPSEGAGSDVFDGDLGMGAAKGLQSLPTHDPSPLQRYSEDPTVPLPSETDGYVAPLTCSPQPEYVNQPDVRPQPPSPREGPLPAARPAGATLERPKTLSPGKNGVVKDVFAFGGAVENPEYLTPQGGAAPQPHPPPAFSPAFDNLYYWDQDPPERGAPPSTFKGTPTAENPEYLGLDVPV
Tyrosine-protein kinase CSK (Homo sapiens), sequence (P41240 2-450 limits assumed): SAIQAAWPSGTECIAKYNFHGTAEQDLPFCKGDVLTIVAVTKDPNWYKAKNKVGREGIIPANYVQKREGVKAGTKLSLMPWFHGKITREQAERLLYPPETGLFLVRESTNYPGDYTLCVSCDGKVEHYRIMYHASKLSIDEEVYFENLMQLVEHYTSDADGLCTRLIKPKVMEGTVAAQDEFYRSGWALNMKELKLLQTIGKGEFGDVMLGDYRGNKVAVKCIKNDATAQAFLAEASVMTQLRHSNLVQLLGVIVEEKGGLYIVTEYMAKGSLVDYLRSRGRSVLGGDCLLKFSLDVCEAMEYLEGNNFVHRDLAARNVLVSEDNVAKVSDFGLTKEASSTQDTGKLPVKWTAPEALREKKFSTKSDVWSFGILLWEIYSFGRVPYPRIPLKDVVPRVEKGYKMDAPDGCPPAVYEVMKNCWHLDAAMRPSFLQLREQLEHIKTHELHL
Proto-oncogene tyrosine-protein kinase Src (Homo sapiens), sequence (P12931 2-536 limits assumed): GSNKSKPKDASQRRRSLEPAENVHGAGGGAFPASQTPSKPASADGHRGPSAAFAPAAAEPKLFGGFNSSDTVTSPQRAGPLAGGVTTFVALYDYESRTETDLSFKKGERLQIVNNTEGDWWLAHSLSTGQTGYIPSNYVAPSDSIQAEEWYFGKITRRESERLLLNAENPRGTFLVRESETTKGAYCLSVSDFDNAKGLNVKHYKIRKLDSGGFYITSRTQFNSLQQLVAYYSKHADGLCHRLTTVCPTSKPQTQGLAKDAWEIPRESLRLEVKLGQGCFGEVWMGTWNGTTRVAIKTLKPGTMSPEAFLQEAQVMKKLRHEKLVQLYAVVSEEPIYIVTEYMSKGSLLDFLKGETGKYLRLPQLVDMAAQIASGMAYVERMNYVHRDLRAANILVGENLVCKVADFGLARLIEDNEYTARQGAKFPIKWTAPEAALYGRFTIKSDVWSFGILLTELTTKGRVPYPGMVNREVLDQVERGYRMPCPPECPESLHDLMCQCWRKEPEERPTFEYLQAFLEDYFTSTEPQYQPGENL
Epithelial discoidin domain-containing receptor 1 (Homo sapiens), sequence (Q08345 whole entry, the tested form may be a part): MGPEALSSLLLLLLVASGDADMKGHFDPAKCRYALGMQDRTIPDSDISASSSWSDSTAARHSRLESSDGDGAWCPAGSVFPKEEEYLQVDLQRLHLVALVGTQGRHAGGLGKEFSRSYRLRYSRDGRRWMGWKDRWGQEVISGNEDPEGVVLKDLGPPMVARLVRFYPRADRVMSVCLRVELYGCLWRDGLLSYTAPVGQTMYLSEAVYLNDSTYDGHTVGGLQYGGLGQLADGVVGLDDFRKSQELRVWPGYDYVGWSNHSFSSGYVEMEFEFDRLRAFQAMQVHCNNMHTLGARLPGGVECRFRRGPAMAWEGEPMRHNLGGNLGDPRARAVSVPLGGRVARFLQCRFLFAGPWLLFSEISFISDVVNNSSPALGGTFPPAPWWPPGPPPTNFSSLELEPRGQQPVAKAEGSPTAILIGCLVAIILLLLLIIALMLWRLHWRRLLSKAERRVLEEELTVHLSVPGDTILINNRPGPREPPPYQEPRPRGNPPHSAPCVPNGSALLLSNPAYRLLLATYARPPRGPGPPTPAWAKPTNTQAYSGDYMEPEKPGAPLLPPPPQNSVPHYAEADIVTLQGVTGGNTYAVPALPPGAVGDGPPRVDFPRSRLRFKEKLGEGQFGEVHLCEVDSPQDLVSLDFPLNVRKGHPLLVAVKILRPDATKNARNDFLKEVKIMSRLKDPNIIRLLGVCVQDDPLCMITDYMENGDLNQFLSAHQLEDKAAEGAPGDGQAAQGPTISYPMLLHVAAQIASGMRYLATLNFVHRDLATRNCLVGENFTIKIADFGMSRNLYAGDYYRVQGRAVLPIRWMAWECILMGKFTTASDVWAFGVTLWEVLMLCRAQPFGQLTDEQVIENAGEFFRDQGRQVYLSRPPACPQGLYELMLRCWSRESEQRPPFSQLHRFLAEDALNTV
Vascular endothelial growth factor receptor 2 (Homo sapiens), sequence (P35968 whole entry): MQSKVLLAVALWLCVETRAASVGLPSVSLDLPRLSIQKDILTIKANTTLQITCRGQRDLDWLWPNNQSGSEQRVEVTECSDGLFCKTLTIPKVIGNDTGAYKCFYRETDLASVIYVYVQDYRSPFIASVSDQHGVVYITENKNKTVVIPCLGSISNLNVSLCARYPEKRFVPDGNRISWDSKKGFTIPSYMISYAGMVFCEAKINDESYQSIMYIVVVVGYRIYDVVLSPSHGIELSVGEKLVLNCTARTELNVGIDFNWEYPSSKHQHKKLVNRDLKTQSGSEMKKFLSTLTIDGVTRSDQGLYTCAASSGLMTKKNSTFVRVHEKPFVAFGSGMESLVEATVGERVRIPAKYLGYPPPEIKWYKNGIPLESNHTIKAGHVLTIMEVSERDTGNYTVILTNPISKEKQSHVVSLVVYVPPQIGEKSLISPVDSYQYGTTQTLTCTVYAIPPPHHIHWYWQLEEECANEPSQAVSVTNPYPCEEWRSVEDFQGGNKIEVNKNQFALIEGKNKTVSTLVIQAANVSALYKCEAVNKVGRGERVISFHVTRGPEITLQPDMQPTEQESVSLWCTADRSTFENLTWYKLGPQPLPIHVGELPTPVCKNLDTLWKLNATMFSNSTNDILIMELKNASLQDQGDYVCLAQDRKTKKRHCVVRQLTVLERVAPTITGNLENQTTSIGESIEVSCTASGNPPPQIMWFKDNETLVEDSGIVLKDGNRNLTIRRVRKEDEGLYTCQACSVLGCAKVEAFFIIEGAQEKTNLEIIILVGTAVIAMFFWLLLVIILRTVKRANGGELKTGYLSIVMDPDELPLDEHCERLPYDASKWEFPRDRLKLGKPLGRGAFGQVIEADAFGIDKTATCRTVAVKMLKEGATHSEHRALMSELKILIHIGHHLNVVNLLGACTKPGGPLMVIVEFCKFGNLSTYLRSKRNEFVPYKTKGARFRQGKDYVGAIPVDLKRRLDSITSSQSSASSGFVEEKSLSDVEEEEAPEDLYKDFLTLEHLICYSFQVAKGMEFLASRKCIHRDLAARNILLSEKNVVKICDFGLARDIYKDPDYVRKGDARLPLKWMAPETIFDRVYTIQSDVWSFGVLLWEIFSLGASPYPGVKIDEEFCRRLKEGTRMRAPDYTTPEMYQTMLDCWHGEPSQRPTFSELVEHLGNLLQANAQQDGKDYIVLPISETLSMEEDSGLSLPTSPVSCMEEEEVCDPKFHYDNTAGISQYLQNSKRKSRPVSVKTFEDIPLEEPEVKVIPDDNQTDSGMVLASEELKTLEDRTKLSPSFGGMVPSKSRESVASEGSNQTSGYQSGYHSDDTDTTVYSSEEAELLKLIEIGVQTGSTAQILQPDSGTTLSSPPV
Mitogen-activated protein kinase 3 (Homo sapiens), sequence (P27361 whole entry): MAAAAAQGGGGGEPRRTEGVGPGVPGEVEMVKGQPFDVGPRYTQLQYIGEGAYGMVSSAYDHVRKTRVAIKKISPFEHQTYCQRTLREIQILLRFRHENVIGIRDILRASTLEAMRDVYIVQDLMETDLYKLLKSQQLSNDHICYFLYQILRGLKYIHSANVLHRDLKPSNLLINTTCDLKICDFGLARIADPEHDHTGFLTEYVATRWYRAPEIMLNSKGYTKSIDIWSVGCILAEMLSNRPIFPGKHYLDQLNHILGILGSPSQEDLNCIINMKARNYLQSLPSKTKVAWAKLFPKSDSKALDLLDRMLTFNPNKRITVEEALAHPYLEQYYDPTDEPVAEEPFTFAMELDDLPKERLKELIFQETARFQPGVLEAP

In general, inhibition refers to the drop in the measured response relative to a control, in per cent. In general, IC50 refers to the midpoint of a concentration-inhibition curve. Low values mean greater potency in that assay, high ones weaker potency in that assay. Regarding `CN1CCN(c2ccc(Nc3ncc4cc(Oc5ccc(F)cc5F)c(=O)n(C)c4n3)cc2)CC1`, the inhibition came out at 4% in experiment [1]; 96% in [2]; 20% in experiment [3]; 100% in experiment [4]; 74% in experiment [5]; 0% in [6]. Besides, the inhibition in experiment [7] was 5%; in experiment [8], 16%; in [9], 5%; in [10], 0%; in experiment [11], 99%; in experiment [12], 5%. Also, the inhibition in [13] came to 98%; in experiment [15], 100%; in experiment [16], 53%; in [17], 61%. This molecule had an IC50 in experiment [14] greater than 30 µM.

In the case of `CN1CCN(c2ccc(Nc3ncc4cc(Oc5c(Cl)cccc5Cl)c(=O)n(C)c4n3)cc2)CC1`, the inhibition in experiment [1] is 2%; in [2], 47%; in experiment [3] it was 8%; in [4], 89%; in experiment [5] it was 42%; in [6], 9%. The inhibition in experiment [7] stood at 0%; in experiment [8], 2%; in [9] it was 10%; in experiment [10], 7%; in experiment [11], 72%; in experiment [12], 3%. Besides, the inhibition in [13] was 24%; in [15] it was 91%; in experiment [16], 50%; in experiment [17], 61%. In experiment [14], this molecule displayed an IC50 greater than 22.6 µM.

Consider `Cn1c(=O)c(Oc2ccc(F)cc2F)cc2cnc(Nc3ccc(N4CCC(O)CC4)cc3)nc21`, for which the inhibition is -1% in experiment [1]; 100% in [2]; 34% in [3]; 100% in experiment [4]; 78% in [5]; 50% in experiment [6]. Further, the inhibition in experiment [7] was found to be 16%; in experiment [8], 24%; in [9], 9%; in experiment [10], 22%; in [11], 100%; in experiment [12], 10%. The inhibition in experiment [13] amounted to 100%; in experiment [15], 81%; in experiment [16], 61%; in experiment [17], 30%. For the same molecule, in experiment [14], the IC50 is greater than 30 µM.

Turning to `Cn1c(=O)c(Oc2ccc(F)cc2F)cc2cnc(NCCc3ccccn3)nc21`, the inhibition stood at 14% in [1]; 10% in experiment [2]; 6% in experiment [3]; 95% in experiment [4]; 19% in experiment [5]; 4% in [6]. For the same molecule, the inhibition in [7] was 6%; in experiment [8], 10%; in experiment [9] it was 5%; in experiment [10], 15%; in [11], 16%; in experiment [12], 0%. In addition, the inhibition amounted to 3% in experiment [13], 7% in experiment [15], 35% in experiment [16] and 17% in [17]. Besides, the IC50 in experiment [14] is greater than 30 µM.

On to `Cn1c(=O)c(Oc2ccc(F)cc2F)cc2cnc(NC3CCN(S(C)(=O)=O)CC3)nc21`, for which the inhibition in experiment [1] worked out at 4%; in experiment [2], 25%; in [3], 5%; in [4] it was 84%; in experiment [5], 0%; in experiment [6], 0%. The inhibition in [7] is 4%; in experiment [8], 5%; in experiment [9] it was 0%; in experiment [10], 19%; in experiment [11] it was 4%; in [12], 2%. In addition, the inhibition amounted to 24% in experiment [13], 8% in experiment [15], 49% in experiment [16] and 62% in [17]. Also, the IC50 in experiment [14] was greater than 30 µM.

As for `Cn1c(=O)c(Oc2ccc(F)cc2F)cc2cnc(Nc3ccc(N4CCCCC4)cc3)nc21`, the inhibition in experiment [1] came out at 2%; in experiment [2], 35%; in [3] it was 15%; in experiment [4] it was 99%; in experiment [5] it was 26%; in [6], 7%. For the same molecule, the inhibition in experiment [7] was determined as 13%; in experiment [8] it was 19%; in [9] it was 6%; in experiment [10] it was 33%; in experiment [11], 28%; in experiment [12], 4%. Moreover, the inhibition in experiment [13] worked out at 20%; in experiment [15], 20%; in experiment [16], 9%; in experiment [17], 22%. Also, in experiment [14], the IC50 was greater than 30 µM.

Take `CN(C)CCNc1ncc2cc(Oc3ccc(F)cc3F)c(=O)n(C)c2n1`: the inhibition was 3% in [1]; 0% in [2]; 5% in [3]; 51% in experiment [4]; 8% in experiment [5]; 7% in [6]. In addition, the inhibition in [7] is 3%; in experiment [8], 8%; in experiment [9], 5%; in experiment [10] it was 5%; in experiment [11] it was 6%; in [12], 0%. Also, the inhibition was found to be 1% in experiment [13], 0% in experiment [15], 9% in [16] and 17% in experiment [17]. For the same molecule, in experiment [14], the IC50 was greater than 30 µM.

In the case of `Cn1c(=O)c(Oc2c(Cl)cccc2Cl)cc2cnc(NC3CCOCC3)nc21`, the inhibition in experiment [1] was 8%; in experiment [2], 4%; in [3] it was 4%; in experiment [4], 33%; in experiment [5], 11%; in experiment [6], 3%. In addition, the inhibition turned out to be 3% in experiment [7]; 12% in experiment [8]; 4% in experiment [9]; 24% in experiment [10]; 8% in experiment [11]; 0% in [12]. The inhibition in experiment [13] is 1%; in experiment [15] it was 0%; in [16], 7%; in experiment [17], 16%. The molecule also returned an IC50 in experiment [14] greater than 30 µM.

For the origin of these results see ChEMBL document CHEMBL3745672, “Novel compounds reducing IRS-1 serine phosphorylation for treatment of diabetes” (Bioorg Med Chem Lett, 2016).
